Consider 2 compounds from US20200197461A1, “NOVEL CANNABIS SATIVA LINES AND EXTRACTS WITH ANTI-CANCER PROPERTIES” (Pathway RX Inc., priority 2018, published 2020).

Molecules are shown by their SMILES. “And” between values parts separate entries of the source, which are not always exact repeats. Equal values may be shown once.

This assay has as its system HCC1806 breast cancer cells. As to the kind of experiment: MTT proliferation assay on HCC1806 cells. Type of assay: cell-based, human. The protocol: HCC 1806—Primary Acantholytic Squamous Cell Carcinoma
(Colorimetric assays using the tetrazolium salt thiazolyl blue, also termed MTT, after methyl-thiazolyl-tetrazolium)
Around 1500 cells are in placed in each well in 96 well plates, 10 extracts (tested 2 concentrations each, 0.007 mg/ml and 0.015 μg/μl) were added to separate wells. Untreated cells and DMSO-treated cells were used as controls in separate wells. Experiments were performed in triplicate. A total number of 9×10^4 cells are required at each concentration. The well plates were purchased from Sigma Aldrich.
Mix cells and medium nicely, add 150 μl per well, plate eight 96-well plates for each experiment.
Place 96-well plates in a 37° C. incubator with 5% CO2. After 24 hours, the medium was changed to the medium containing extracts.
The MTT assay was performed from Day 0 to Day 7 by adding 15 μl MTT labeling reagent into each well and incubated at 37° C. for 4 hours. Thereafter, 150 μl solubilization solution was added into each well and incubated overnight in the 37° C. incubator with 5% CO2.
3-(4,5-Dimethylthiazol-2-yl)-2,5-diphenyltetrazolium bromide assays were performed using the Cell Proliferation Kit I (Roche Diagnostics GmbH) as the manufacturer's instructions. The absorbance of the samples was measured at 595 nm using a microtiter plate reader (FLUOstar Omega, BMG LABTECH). The experiments were done in triplicate.

`C=C(C)[C@@H]1CCC(C)=C[C@H]1c1c(O)cc(CCCCC)cc1O` [CBD, cannabidiol]: under “pure cannabinoid”, the “effective (active) concentration on HCC1806 cancer cells” value is 15 to 20 µM and 15 µM. Also, for the setting “pure cannabinoid, conversion of 15 μM”, the “effective concentration on HCC1806 cancer cells, converted” value was 0.0047 µg/µL. Regarding `CCCCCc1cc(O)c2c(c1)OC(C)(C)[C@@H]1CCC(C)=C[C@@H]21` [THC, tetrahydrocannabinol], where the note is “20 μM (0.0063 μg/μl)”, the “effectiveness of pure cannabinoid on HCC1806 cancer cells” value is “only marginally and insignificantly effective”.
